From patent US11178868B2, “Alkynyl-substituted 3-phenylpyrrolidine-2,4-diones and use thereof as herbicides” (Bayer CropScience Aktiengesellschaft, priority 2015, dated 2021) come the findings set out here.

Common to all, as to format: in vivo
Test [1] concerns Alopecurus myosuroides. The experiment in a line: Pre-emergence herbicidal effect. Particulars: scored visually after 3 weeks. An excerpt: (§1) Seeds of monocotyledonous and dicotyledonous weed plants and crop plants are laid out in wood-fibre pots in sandy loam and covered with soil. The compounds according to the invention formulated in the form of wettable powders (WP) or as emulsion concentrates (EC) are then applied as aqueous suspension or emulsion at a water application rate of 600 to 800 I/ha (converted) with the addition of 0.2% wetting agent to the surface of the covering soil. After the treatment, the pots are placed in a greenhouse and kept under good growth conditions for the trial plants. The damage to the test plants is scored visually after a test period of 3 weeks by comparison with untreated controls (herbicidal activity in percent (%): 100% activity=the plants have died, 0% activity=like control plants).

The test system of test [2] is Avena fatua. The experiment in a line: Pre-emergence herbicidal effect. Particulars: scored visually after 3 weeks.
Source text: as §1

Test [3] relates to Cyperus esculentus. The experiment in a line: Pre-emergence herbicidal effect. Particulars: 320 g a.i./ha, scored visually after 3 weeks.
Source text: as §1

Test [4] relates to Echinochloa crus-galli. The experiment in a line: Pre-emergence herbicidal effect. Particulars: scored visually after 3 weeks.
Source text: as §1

For test [5], the system named is Lolium multiflorum. The experiment in a line: Pre-emergence herbicidal effect. Particulars: scored visually after 3 weeks.
Source text: as §1

The subject of test [6] is Setaria viridis. The experiment in a line: Pre-emergence herbicidal effect. Particulars: scored visually after 3 weeks.
Source text: as §1

The test system of test [7] is Alopecurus myosuroides. The experiment in a line: Post-emergence herbicidal effect. Particulars: assessed visually after about 3 weeks. The method, then:
(§2) Seeds of monocotyledonous and dicotyledonous weed and crop plants are laid out in sandy loam in wood-fibre pots, covered with soil and cultivated in a greenhouse under good growth conditions. 2 to 3 weeks after sowing, the test plants are treated at the one-leaf stage. The compounds according to the invention, formulated in the form of wettable powders (WP) or as emulsion concentrates (EC), are then sprayed as aqueous suspension or emulsion at a water application rate of 600 to 800 I/ha (converted) with the addition of 0.2% of wetting agent onto the green parts of the plants. After the test plants have been left to stand in the greenhouse under optimal growth conditions for about 3 weeks, the action of the preparations is assessed visually in comparison to untreated controls (herbicidal action in percent (%): 100% activity=the plants have died, 0% activity=like control plants).

Test [8] has as its system Avena fatua. The experiment in a line: Post-emergence herbicidal effect. Particulars: assessed visually after about 3 weeks. The method, then: as §2
Test [9] has as its system Echinochloa crus-galli. The experiment in a line: Post-emergence herbicidal effect. Particulars: assessed visually after about 3 weeks. The method, then:
as §2

Test [10] has as its system Lolium multiflorum. The experiment in a line: Post-emergence herbicidal effect. Particulars: assessed visually after about 3 weeks. Here is the method: as §2
Test [11] relates to Setaria viridis. The experiment in a line: Post-emergence herbicidal effect. Particulars: assessed visually after about 3 weeks. Here is the method: as §2
Test [12] has as its system Amaranthus retroflexus. The experiment in a line: Post-emergence herbicidal effect. Particulars: assessed visually after about 3 weeks. Here is the method:
as §2

Test [13] concerns Polygonum convolvulus. The experiment in a line: Post-emergence herbicidal effect. Particulars: 80 g a.i./ha, assessed visually after about 3 weeks. The method, then:
as §2

For `CC#Cc1cc(C)c(C2=C(O)C3(CCCC(OCCOC)C3)NC2=O)c(CC)c1` (centres unmarked) [Example D8], the “Herbicidal effect against [%] ALOMY” value in [1] (80 g a.i./ha), in test [1] (320 g a.i./ha), in test [7] (20 g a.i./ha) and in test [7] (80 g a.i./ha) was 100% each time. Further, the “Herbicidal effect against [%] AVEFA” value in test [2] (80 g a.i./ha), in test [2] (320 g a.i./ha), in [8] (20 g a.i./ha) and in [8] (80 g a.i./ha) was 100% throughout. Also, in test [3], the “Herbicidal effect against [%] CYPES” value turned out to be 100%. The “Herbicidal effect against [%] ECHCG” value in [4] (80 g a.i./ha), in test [4] (320 g a.i./ha), in test [9] (20 g a.i./ha) and in [9] (80 g a.i./ha) was 100% throughout. The “Herbicidal effect against [%] LOLMU” value in [5] (80 g a.i./ha), in test [5] (320 g a.i./ha), in test [10] (20 g a.i./ha) and in [10] (80 g a.i./ha) was 100% each time. Also, the “Herbicidal effect against [%] SETVI” value in test [6] (80 g a.i./ha), in [6] (320 g a.i./ha), in [11] (20 g a.i./ha) and in [11] (80 g a.i./ha) was 100% in each case.
Regarding `CC#Cc1cc(C)c(C2=C(O)C3(CCCC(OCCOC)C3)NC2=O)c(C)c1` (centres unmarked) [Example D6], the “Herbicidal effect against [%] ALOMY” value in [1] (80 g a.i./ha), in test [1] (320 g a.i./ha), in test [7] (20 g a.i./ha) and in [7] (80 g a.i./ha) was 100% throughout. Besides, the “Herbicidal effect against [%] AVEFA” value in [2] (80 g a.i./ha), in [2] (320 g a.i./ha), in [8] (20 g a.i./ha) and in test [8] (80 g a.i./ha) was 100% throughout. Also, in test [3], the “Herbicidal effect against [%] CYPES” value came out at 90%. Moreover, the “Herbicidal effect against [%] ECHCG” value in [4] (80 g a.i./ha), in test [4] (320 g a.i./ha), in test [9] (20 g a.i./ha) and in test [9] (80 g a.i./ha) was 100% in each case. In addition, the “Herbicidal effect against [%] LOLMU” value in test [5] (80 g a.i./ha), in test [5] (320 g a.i./ha), in test [10] (20 g a.i./ha) and in test [10] (80 g a.i./ha) was 100% each time. Moreover, the “Herbicidal effect against [%] SETVI” value in test [6] (80 g a.i./ha), in test [6] (320 g a.i./ha), in test [11] (20 g a.i./ha) and in test [11] (80 g a.i./ha) was 100% each time. Also, the “Herbicidal effect against [%] AMARE” value in test [12] (20 g a.i./ha) and in [12] (80 g a.i./ha) was 80% throughout. Moreover, the “Herbicidal effect against [%] POLCO” value in test [13] is listed as 80%.
As to `CC#Cc1cc(C)c(C2=C(OC(=O)OCC)C3(CCCC(OCCOC)C3)NC2=O)c(C)c1` (centres unmarked) [Example P15], the “Herbicidal effect against [%] ALOMY” value in [1] (80 g a.i./ha), in [1] (320 g a.i./ha), in [7] (20 g a.i./ha) and in [7] (80 g a.i./ha) was 100% each time. In addition, the “Herbicidal effect against [%] AVEFA” value in [2] (80 g a.i./ha), in [2] (320 g a.i./ha), in [8] (20 g a.i./ha) and in test [8] (80 g a.i./ha) was 100% in each case. Also, the “Herbicidal effect against [%] ECHCG” value in [4] (80 g a.i./ha), in test [4] (320 g a.i./ha), in [9] (20 g a.i./ha) and in [9] (80 g a.i./ha) was 100% each time. Also, the “Herbicidal effect against [%] LOLMU” value in test [5] (80 g a.i./ha), in test [5] (320 g a.i./ha), in test [10] (20 g a.i./ha) and in [10] (80 g a.i./ha) was 100% throughout. Also, the “Herbicidal effect against [%] SETVI” value in test [6] (80 g a.i./ha), in [6] (320 g a.i./ha), in test [11] (20 g a.i./ha) and in [11] (80 g a.i./ha) was 100% each time. Further, the “Herbicidal effect against [%] AMARE” value in [12] (20 g a.i./ha) and in [12] (80 g a.i./ha) was 80% in each case. Also, the “Herbicidal effect against [%] POLCO” value in test [13] worked out at 80%.
Take `CC#Cc1cc(C)c(C2=C(OC(=O)OCC)C3(CCCC(OCCOC)C3)NC2=O)c(CC)c1` (centres unmarked) [Example P13]: the “Herbicidal effect against [%] ALOMY” value in test [1] (80 g a.i./ha), in test [1] (320 g a.i./ha), in [7] (20 g a.i./ha) and in [7] (80 g a.i./ha) was 100% throughout. In addition, the “Herbicidal effect against [%] AVEFA” value in test [2] (80 g a.i./ha), in test [2] (320 g a.i./ha), in test [8] (20 g a.i./ha) and in [8] (80 g a.i./ha) was 100% throughout. For the same compound, in [3], the “Herbicidal effect against [%] CYPES” value was found to be 90%. The “Herbicidal effect against [%] ECHCG” value in test [4] (80 g a.i./ha), in test [4] (320 g a.i./ha), in test [9] (20 g a.i./ha) and in test [9] (80 g a.i./ha) was 100% in each case. Moreover, the “Herbicidal effect against [%] LOLMU” value in test [5] (80 g a.i./ha), in test [5] (320 g a.i./ha), in [10] (20 g a.i./ha) and in [10] (80 g a.i./ha) was 100% in each case. Besides, the “Herbicidal effect against [%] SETVI” value in test [6] (80 g a.i./ha), in test [6] (320 g a.i./ha), in [11] (20 g a.i./ha) and in [11] (80 g a.i./ha) was 100% each time.
